The source of these data is US10385003B2, “Ophthalmic formulation” (priority 2011, dated 2019).

Series [1] in a line: Π-A and pressure/time measurements of meibomian lipid films mixed with compounds of formula (I) (Example 5, FIG. 2). In kind it is physicochemical, human. As for the experimental part: (§1) The physico-chemical properties of certain wax esters, meibomian lipids, and compounds of formula (I) alone or mixed with human meibum were characterized on a Langmuir-Blodgett minitrough by means of surface pressure-area (Π-A) measurements.
(§2) A buffer (NaCl: 6.63 g/L, KCl: 1.72 g/L, NaHCO3: 1.38 g/L, CaCl2.2H2O: 0.15 g/L, NaH2PO4.H2O: 0.10 g/L and MOPS: 4.18 g/L dissolved in MilliQ water) was added to a double barrier minitrough (Nima Technology Ltd, UK; Working surface area 15 cm^2−80 cm^2). Purified preparations of wax esters in chloroform (1 mg/mL), meibomian lipids in chloroform (1 mg/mL), and compounds of formula (I) in chloroform (ranging from 1.4 μmol to 0.1 μmol) alone or mixed with human meibum at different ratios, were spread on the surface (air-buffer interface) of the buffer subphase. Dynamic Π-A profiles of films at the air-buffer interface of the Langmuir trough were collected using software supplied by NIMA Technology. Surface pressure was monitored using a paper plate connected to a Wilhelmy balance. Compression and expansion cycles were conducted over an area (A) of 79 cm^2−16 cm^2 at a barrier rate of 15 cm^2/min and at a temperature of 20° C. and 34° C.
Adding a small amount of a compound of formula (I) causes fast stabilisation of the film (indicated on the pressure/time curve with the mixture having little change between isocycles) and the maximum surface pressures are much higher.

The nature of series [2]: Surface pressure-area (Π-A) measurements of pure lipid films on a Langmuir-Blodgett minitrough (Example 5, FIG. 1). In kind it is physicochemical. The conditions noted are these: pure film at air-buffer interface, 20° C. and 34° C. How it is done: as §1, §2
This is indicated by the take-off moving to the left of the x-axis (indicating collapse), whereas the take-off for the compounds of formula (I) remains constant.

A short description of series [3]: Π-A isocycles of human meibum films mixed with model lipids (Example 6, FIG. 5). In kind it is physicochemical. The conditions noted are these: for change of Πmax in subsequent isocycles: meibum 20 μg mixed with lipid, 20° C.; for Πmax in the first isocycle versus meibomian lipid films alone: meibum 20 μg mixed with −10 mol % lipid, spread at 20° C. As for the experimental part: (§3) Freshly synthesised (O-oleoyl)-ω-hydroxypalmitic acid (an example of a compound of formula (I)) was spread either alone or mixed with human meibum on a Langmuir trough on an artificial tear buffer. Pressure-area isocycle profiles were recorded and compared with those of palmityl oleate and oleic acid, alone or mixed with meibum. These measurements were accompanied by fluorescence microscopy of meibum mixed films during pressure-area isocycles.
Collection of meibomian lipids was in accordance with the Tenets of Helsinki. Human meibomian lipids were gently squeezed out of the meibomian glands of a single subject's lower eyelids by applying pressure to the eyelids using sterile cotton swabs on either side of the lid. Multiple collections were carried out and pooled to provide consistency in the experiments. The subject was devoid of any external signs or symptoms of ocular pathology including dry eye disease. The expressed lipids were harvested using a sterile stainless steel spatula and dissolved in chloroform. The meibomian lipids were dried through vacuum concentration and centrifugation, and then reconstituted in chloroform spiked with 0.5% (w/w) of the fluorophore, 1-palmitoyl-2-[12-[(7-nitro-2-1,3-benzoxadiazol-4-yl)amino]dodecanoyl]-sn-glycero-3-phosphatidylcholine] (NBD-DPPC) (Avanti Polar Lipids, Auspep Pty. Ltd (Tullamarine, Australia)) and stored at −20° C. until used.
The results were compared with mixtures with meibomian lipids. Human meibum (20 μg) was mixed with −10 mol % (O-oleoyl)-ω-hydroxypalmitic acid (2 μg) or with palmityl oleate (1.9 μg) or oleic acid (1.1 μg). These mixtures were spread at 20° C. and 5 isocycles carried out. The film was then heated to 35° C. for another 5 isocycles. The Π-A curves were compared with those for pure meibomian lipid films. In some cases, meibomian lipids doped with 0.5% (w/w) NBD-DPPC were used in order to view the films microscopically.
In general, meibomian films were very tolerant to the changes in their composition, indicated by the fact that the shapes of the different Π-A curves of mixed films were similar to those obtained from films of pure meibomian lipids (FIG. 5). […] Meibum containing fluorophore was spread on artificial tear buffer alone or pre-mixed with each of (O-oleoyl)-ω-hydroxypalmitic acid, palmityl oleate, or oleic acid were spread at 20° C. on the trough. After five isocycles, the trough was heated to 35° C. and five more isocycles were carried out. Then the trough was cooled back to 20° C. and again five more isocycles were run.

Series [4] in a line: Π-A measurements of meibomian lipids from a patient with dry eye disease mixed with a compound of formula (I) (Example 5, FIG. 3). In kind it is physicochemical, human. The conditions noted are these: dry eye patient meibomian lipids with 3 μL compound. As for the experimental part: as §2
Series [5] in a line: Π-A isocycles of equimolar pure lipid films on artificial tear buffer, Langmuir trough (Example 6, FIG. 4). The conditions noted are these: for surface activity of pure film: 7.5 nmol film; for surface activity of pure film / change of Π-A profile / take-off through repeated isocycles / change of maximum surface pressure (Πmax) with increasing isocycles: 35° C.; for change of Π-A profile / take-off through repeated isocycles / change of maximum surface pressure (Πmax) with increasing isocycles: 7.5 nmol pure film; for surface area per molecule on take-off: pure film, estimated. In kind it is physicochemical. As for the experimental part: as §3
The surface characteristics of (O-oleoyl)-ω-hydroxypalmitic acid were compared with palmityl oleate (a structurally similar wax ester) and oleic acid (which is equivalent to the fatty acid (amphiphilic) component of (O-oleoyl)-ω-hydroxypalmitic acid).
Films were formed by spreading 7.5 nmol of the lipids dissolved in chloroform onto the cleaned surface (air-buffer interface) of an artificial tear buffer (NaCl: 6.63 g/L, KCl: 1.72 g/L, NaHCO3: 1.38 g/L, CaCl2.2H2O: 0.15 g/L, NaH2PO4×H2O: 0.10 g/L and MOPS: 4.18 g/L dissolved in ion exchange ultrapure water) in a double barrier 80 mL temperature-controlled (35° C.) Langmuir trough (Nima Technology Ltd, UK). After 5 isocycles were obtained, the temperature was lowered to 20° C. A Whilhelmy balance (Whatman No. 1 filter paper) was used to record surface pressure during isocycles (79 cm^2-16 cm^2 at 10 cm^2/min).

A short description of series [6]: Fluorescence microscopy of meibum mixed films during pressure-area isocycles (Example 6, FIG. 6). In kind it is physicochemical, human. The conditions noted are these: NBD-DPPC doped meibum, 20° C. As for the experimental part: as §3
Collection of meibomian lipids was in accordance with the Tenets of Helsinki. Human meibomian lipids were gently squeezed out of the meibomian glands of a single subject's lower eyelids by applying pressure to the eyelids using sterile cotton swabs on either side of the lid. Multiple collections were carried out and pooled to provide consistency in the experiments. The subject was devoid of any external signs or symptoms of ocular pathology including dry eye disease. […]
Micrographs comparing the appearance of pure meibomian lipid films (Row A) with meibomian lipids mixed with the (O-oleoyl)-ω-hydroxypalmitic acid (Row B), palmityl oleate (Row C) or oleic acid (Row D) at 20° C. […] Although not quantitatively verified, the darker patches appeared to be more prevalent in the mixed films of palmityl oleate and oleic acid than for pure meibomian lipid films.

Setting [7] is: meibomian lipids (20 μL) mixed with 3-5 μL compound, FIG. 2.

“Also recorded” adds a separate entry of the source. Read-outs that look alike come from different tables or passages of the source.

For the compound `CCCCCCCC/C=C\CCCCCCCC(=O)OCCCCCCCCCC(=O)O` [(O-oleoyl)-10-hydroxycaprinic acid, (O)-oleoyl-10-hydroxydecanoic acid], the “stabilisation of meibomian lipid film” value in series [1] (setting [7]) is listed as “stabilise the films”.

Consider `CCCCCCCC/C=C\CCCCCCCC(=O)OCCCCCCCCCCCCCCCC(=O)O` [(O-oleoyl)-16-hydroxypalmitic acid], for which the “film collapse during compression/expansion cycles (take-off position)” value in series [2] is reported as “do not collapse”. Also, in series [3], the “change of Πmax in subsequent isocycles” value was “small increase” and the “Πmax in the first isocycle versus meibomian lipid films alone” value was “higher”. Further, in series [4], the “hysteresis of pressure/area curve” value is “increase in hysteresis” and the “surface pressure of film” value is given as “increases the surface pressure”. For the same compound, in series [5] (listed as (O-oleoyl)-w-hydroxypalmitic acid), the “surface activity of pure film” value is “as surface active as oleic acid films”. The “surface activity of pure film” value in series [5] (listed as (O-oleoyl)-ω-hydroxypalmitic acid) was “very surface active; also recorded: much more surface active”. Further, in series [5] (FIG. 4), the “change of Π-A profile / take-off through repeated isocycles” value is “little change in its profile”. Further, the “surface area covered by pure film” value in series [5] (compared with palmityl oleate or oleic acid) is “much larger surface area than either palmityl oleate or oleic acid”. The “surface area per molecule on take-off” value in series [5] was 131 Å^2 per molecule. Besides, the “stabilisation of meibomian lipid film” value in series [1] (setting [7]) is listed as “stabilise the films”.

Turning to `CCCCCCCCCCCCCCCCCC(=O)OCCCCCCCCCCCCCCCC(=O)O` [(O-stearyl)-16-hydroxypalmitic acid, (O)-stearyl-16-hydroxypalmitic acid], the “film collapse during compression/expansion cycles (take-off position)” value in series [2] is given as “do not collapse”. In addition, the “stabilisation of meibomian lipid film” value in series [1] is listed as “stabilise the films”.

As to `CCCCCCCC/C=C\CCCCCCCC(=O)O` [oleic acid, reference compound], in series [3], the “change of Πmax in subsequent isocycles” value is listed as “decreased” and the “Πmax in the first isocycle versus meibomian lipid films alone” value was “higher”. Besides, in series [5] (FIG. 4), the “change of maximum surface pressure (Πmax) with increasing isocycles” value is reported as “decreases” and the “change of Π-A profile / take-off through repeated isocycles” value was “decreases in take-off”. The “microscopic appearance of meibomian film mixed with lipid” value in series [6] is “did not appear substantially different from pure meibomian lipid films”.

As to `CCCCCCCC/C=C\CCCCCCCC(=O)OCCCCCCCCCCCCCCCC` [palmityl oleate, reference compound], the “film collapse during compression/expansion cycles (take-off position)” value in series [2] is “collapse”. Also, in series [3], the “change of Πmax in subsequent isocycles” value is “marked increase” and the “Πmax in the first isocycle versus meibomian lipid films alone” value is recorded as “did not influence”. In addition, in series [5] (FIG. 4), the “change of maximum surface pressure (Πmax) with increasing isocycles” value was “increase in maximum surface pressure” and the “change of Π-A profile / take-off through repeated isocycles” value is “slow shift in the Π-A curve to the left”. Further, the “area per molecule at flattening of the Π-A curve” value in series [5] (assuming the film is a monolayer up to this point, FIG. 4) is reported as “about 60 Å^2”. For the same compound, the “surface area per molecule on take-off” value in series [5] is 82 Å^2 per molecule. Also, in series [6], the “microscopic appearance of meibomian film mixed with lipid” value was “did not appear substantially different from pure meibomian lipid films”.

As to `CCCCCCCCCCCCCCCCCC(=O)OCCCCCCCCCCCCCCCC` [palmityl stearate wax ester, palmityl stearate], the “film collapse during compression/expansion cycles (take-off position)” value in series [2] is reported as “collapse”.

For the compound `CC/C=C\C/C=C\C/C=C\CCCCCCCC(=O)OCCCCCCCCCCCCCCCCCC` [steroyl linolenate wax ester, steroyl linolenate], the “film collapse during compression/expansion cycles (take-off position)” value in series [2] is given as “collapse”.
